Measurements taken from the RepoRT retention time repository (doi:10.1016/j.chroma.2019.01.023).

Tests used:
Conditions in all cases: stereoisomer not certain
[1] = HILIC, Merck SeQuant ZIC-pHILIC, 150 × 2.1 mm, 5 µm, 40 °C, 0.3 mL/min, estimated dead time 1.1 min; A: acetonitrile; B: water + 2.8 mM ammonium formate, pH 9; gradient (min/%B) 0/5 1/5 10/51 13/51 13.1/5 20/5
[2] = RP, Phenomenex Kinetex C18, 150 × 2.1 mm, 1.7 µm, 30 °C, 0.3 mL/min, estimated dead time 1.1 min; A: water + 0.1% formic acid, pH 3; B: acetonitrile + 0.1% formic acid, pH 3; gradient (min/%B) 0/2 14/100 17/100 17.1/2 25/2
[3] = as above; remark: listed apart in the source
[4] = HILIC, Waters ACQUITY UPLC BEH Amide, 150 × 2.1 mm, 1.7 µm, 40 °C, 0.5 mL/min, estimated dead time 0.66 min; A: 5% water + 95% acetonitrile; B: 70% water + 30% acetonitrile + 10 mM ammonium formate, pH 6.5; gradient (min/%B) 0/0 2/0 20/70 23/70 24/0 31/0

LC retention time [1] [min] | LC retention time [2] [min] | LC retention time [3] [min] | LC retention time [4] [min] | Compound
3.78 | 5.76 | 5.87 | 1.24 | COc1cc(C=CC(=O)O)ccc1O [FERULATE]
7.4 | 1.64 | 1.44 | 6.4 | Nc1nc2nc[nH]c2c(=O)[nH]1 [GUANINE]
7.76 | 2.67 | 2.8 | 7.3 | Nc1nc2c(ncn2C2OC(CO)C(O)C2O)c(=O)[nH]1 (stereo not given) [GUANOSINE]
5.32 | 4.62 | 4.78 | 2.66 | O=C(O)CNC(=O)c1ccccc1 [HIPPURATE]
6.25 | 1.62 | 1.76 | 3.88 | O=c1[nH]cnc2nc[nH]c12 [HYPOXANTHINE]
2.09 | 5.26 | 5.42 | 0.98 | NC(=O)Cc1c[nH]c2ccccc12 [INDOLE-3-ACETAMIDE]
3.41 | 5.55 | 6.56 | 0.83 | OCCc1c[nH]c2ccccc12 [INDOLE-3-ETHANOL]
6.86 | 2.64 | 2.79 | 5.52 | O=c1[nH]cnc2c1ncn2C1OC(CO)C(O)C1O (stereo not given) [INOSINE]
5.56 | 4.19 | 4.34 | 2.69 | O=C(O)c1cc(=O)c2ccccc2[nH]1 [KYNURENATE]
7.51 | 3.7 | 3.82 | 5.86 | NC(=O)[C@@H](N)Cc1c[nH]c2ccccc12 [L-TRYPTOPHANAMIDE]
2.06 | 6.13 | 6.2 | 1.32 | Cc1cc2nc3[nH]c(=O)[nH]c(=O)c3nc2cc1C [LUMICHROME]
1.36 | 6.29 | 6.37 | 0.88 | COc1ccc2[nH]cc(CCNC(C)=O)c2c1 [MELATONIN]
3.94 | 3.82 | 4.07 | 1.99 | CSCC1OC(n2cnc3c(N)ncnc32)C(O)C1O (stereo not given) [METHYLTHIOADENOSINE]
2.04 | 4.91 | 5.14 | 1.15 | CC(C)=CCNc1ncnc2nc[nH]c12 [N6-(DELTA2-ISOPENTENYL)-ADENINE]
3.02 | 5.08 | 5.25 | 4.22 | CC(=O)NC(CC(C)C)C(=O)O (stereo not given) [N-ACETYLLEUCINE]
4.9 | 4.1 | 4.22 | 3.31 | CSCCC(NC(C)=O)C(=O)O (stereo not given) [N-ACETYLMETHIONINE]
4.08 | 5.54 | 5.64 | 2.48 | CC(=O)NC(Cc1ccccc1)C(=O)O (stereo not given) [N-ACETYLPHENYLALANINE]
2.26 | 4.58 | 4.83 | 1.02 | CC(=O)NCCc1c[nH]c2ccc(O)cc12 [N-ACETYLSEROTONIN]

LC retention time [1] [min] | LC retention time [2] [min] | LC retention time [3] [min] | LC retention time [4] [min] | Compound
5.66 | 5.82 | 5.91 | 2.78 | CC(=O)NC(Cc1c[nH]c2ccccc12)C(=O)O (stereo not given) [N-ACETYLTRYPTOPHAN]
5.35 | 3.85 | 3.93 | 2.24 | CSCC[C@H](NC=O)C(=O)O [N-FORMYL-L-METHIONINE]
6.03 | 3.4 | 3.49 | 3.31 | CC(C)(CO)C(O)C(=O)NCCC(=O)O (stereo not given) [PANTOTHENATE]
2.16 | 2.27 | 4.04 | 1.36 | Cn1c(=O)[nH]c2ncn(C)c2c1=O [PARAXANTHINE]
7.04 | 3.13 | 3.18 | 7.87 | NC(Cc1ccccc1)C(=O)O (stereo not given) [PHENYLALANINE]
3.69 | 1.65 | 1.81 | 3.29 | Cc1ncc(CO)c(CO)c1O [PYRIDOXINE]
5.9 | 4.65 | 4.85 | 6.01 | Cc1cc2nc3c(=O)[nH]c(=O)nc-3n(CC(O)C(O)C(O)CO)c2cc1C (stereo not given) [RIBOFLAVIN]
1.46 | 5.26 | 5.42 | 0.81 | NC(=O)c1ccccc1O [SALICYLAMIDE]
2.41 | 6.91 | 7 | 1.12 | O=C(O)CCCCCCCCC(=O)O [SEBACATE]
1.98 | 3.88 | 4.07 | 1.36 | Cn1c(=O)c2[nH]cnc2n(C)c1=O [THEOPHYLLINE]
2.09 | 4.4 | 4.64 | 1.08 | CSc1ncnc2nc[nH]c12 [THIOPURINE S-METHYLETHER]
3.56 | 3.21 | 3.34 | 1.97 | Cc1cn(C2CC(O)C(CO)O2)c(=O)[nH]c1=O (stereo not given) [THYMIDINE]
2.68 | 2.42 | 2.54 | 1.6 | Cc1c[nH]c(=O)[nH]c1=O [THYMINE]
8.2 | 2 | 2.11 | 9 | NC(Cc1ccc(O)cc1)C(=O)O (stereo not given) [TYROSINE]
6.2 | 1.88 | 2.06 | 3.65 | O=c1ccn(C2OC(CO)C(O)C2O)c(=O)[nH]1 (stereo not given) [URIDINE]
6.53 | 1.82 | 2.05 | 4.97 | O=c1[nH]c(=O)c2[nH]cnc2[nH]1 [XANTHINE]
7.99 | 3.01 | 3.11 | 7.17 | O=c1[nH]c(=O)c2ncn(C3OC(CO)C(O)C3O)c2[nH]1 (stereo not given) [XANTHOSINE]
